Experimental data: article PMC9516332 (Frontiers in Oncology, 2022)
Where two headings read alike, the source gives them in different places.

Legend:
Test in all cases: Kinase panel profiling at 1 µmol/L (MSA or IMAP), percentage inhibition
Format in all cases: biochemical
[1] = target: T1, panel of 255 wild-type kinases (Homo sapiens, UniProt O60285); conditions: read-out: %-inhibition, NuaK1
T1 sequence (O60285 1-661): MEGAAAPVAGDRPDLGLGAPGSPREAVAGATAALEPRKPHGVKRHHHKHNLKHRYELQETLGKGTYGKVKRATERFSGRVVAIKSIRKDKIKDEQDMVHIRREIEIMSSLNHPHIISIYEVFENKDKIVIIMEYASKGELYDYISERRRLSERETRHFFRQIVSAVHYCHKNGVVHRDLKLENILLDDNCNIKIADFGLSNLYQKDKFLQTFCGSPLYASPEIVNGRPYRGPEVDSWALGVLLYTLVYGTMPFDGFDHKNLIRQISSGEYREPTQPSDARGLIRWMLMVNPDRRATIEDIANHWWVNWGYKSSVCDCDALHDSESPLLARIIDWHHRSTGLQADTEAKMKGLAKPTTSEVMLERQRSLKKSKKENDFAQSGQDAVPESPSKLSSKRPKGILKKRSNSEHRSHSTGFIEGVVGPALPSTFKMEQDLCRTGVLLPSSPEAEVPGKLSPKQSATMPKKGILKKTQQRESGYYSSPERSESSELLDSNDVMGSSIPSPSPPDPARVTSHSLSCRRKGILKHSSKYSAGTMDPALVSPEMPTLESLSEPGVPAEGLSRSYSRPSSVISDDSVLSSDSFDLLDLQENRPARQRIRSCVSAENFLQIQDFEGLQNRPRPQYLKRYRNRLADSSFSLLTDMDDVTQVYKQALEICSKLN

[2] = target: panel of 255 wild-type kinases (Homo sapiens, UniProt P16234); conditions: read-out: %-inhibition at 1 µmol/L, PDGFRα
[3] = target: panel of 255 wild-type kinases (Homo sapiens, UniProt P17948); conditions: read-out: %-inhibition at 1 µmol/L, FLT1
[4] = target: T2, panel of 255 wild-type kinases (Homo sapiens, UniProt Q9UL54); conditions: read-out: %-inhibition at 1 µmol/L, TAOK2
T2 sequence (Q9UL54 1-1235): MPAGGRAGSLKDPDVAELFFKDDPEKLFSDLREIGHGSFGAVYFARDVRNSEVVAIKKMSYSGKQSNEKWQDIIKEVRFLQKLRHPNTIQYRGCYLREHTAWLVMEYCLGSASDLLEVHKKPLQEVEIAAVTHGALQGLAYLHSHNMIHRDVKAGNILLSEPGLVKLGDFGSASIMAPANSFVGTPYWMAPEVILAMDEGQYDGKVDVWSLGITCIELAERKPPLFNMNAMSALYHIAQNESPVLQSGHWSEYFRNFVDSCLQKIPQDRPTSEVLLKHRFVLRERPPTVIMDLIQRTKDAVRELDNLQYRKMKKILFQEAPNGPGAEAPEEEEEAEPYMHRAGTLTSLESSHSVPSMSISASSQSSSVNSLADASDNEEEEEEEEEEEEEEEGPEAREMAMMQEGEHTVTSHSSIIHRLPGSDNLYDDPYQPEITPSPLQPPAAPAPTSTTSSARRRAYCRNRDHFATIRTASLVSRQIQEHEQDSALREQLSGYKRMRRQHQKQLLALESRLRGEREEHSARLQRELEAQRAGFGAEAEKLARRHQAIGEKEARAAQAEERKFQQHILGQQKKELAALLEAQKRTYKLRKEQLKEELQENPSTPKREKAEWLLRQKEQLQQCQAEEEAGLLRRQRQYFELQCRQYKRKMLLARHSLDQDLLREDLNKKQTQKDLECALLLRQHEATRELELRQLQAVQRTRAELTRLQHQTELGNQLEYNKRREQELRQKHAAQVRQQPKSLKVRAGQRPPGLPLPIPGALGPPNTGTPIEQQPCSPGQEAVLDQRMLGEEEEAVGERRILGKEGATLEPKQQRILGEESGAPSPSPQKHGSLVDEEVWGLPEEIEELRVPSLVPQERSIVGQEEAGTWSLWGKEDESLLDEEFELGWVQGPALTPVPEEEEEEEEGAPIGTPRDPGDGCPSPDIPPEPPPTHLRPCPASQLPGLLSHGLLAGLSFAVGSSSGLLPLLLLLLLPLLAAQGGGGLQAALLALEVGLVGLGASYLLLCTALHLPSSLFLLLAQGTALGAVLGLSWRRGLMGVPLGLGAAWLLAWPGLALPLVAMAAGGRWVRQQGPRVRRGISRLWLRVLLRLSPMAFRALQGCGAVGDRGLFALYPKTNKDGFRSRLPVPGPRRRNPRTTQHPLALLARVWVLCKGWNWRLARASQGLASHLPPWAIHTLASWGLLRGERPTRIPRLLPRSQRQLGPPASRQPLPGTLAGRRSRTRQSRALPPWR

[5] = NuaK1, 1 µmol/L single concentration
[6] = kinase PDGFRα, 1 µmol/L single concentration
[7] = kinase FLT1, 1 µmol/L single concentration
[8] = kinase TAOK2, 1 µmol/L single concentration

| inhibition at 1 µM [2, 6] [%] | SMILES | inhibition at 1 µM [1, 5] [%] | inhibition at 1 µM [3, 7] [%] | inhibition at 1 µM [4, 8] [%] | inhibition at 1 µM [1] [%] | inhibition at 1 µM [2] [%] | inhibition at 1 µM [3] [%] | inhibition at 1 µM [4] [%] |
| --- | --- | --- | --- | --- | --- | --- | --- | --- |
| 0.405 | Cc1nc(NC(=O)N2CCC[C@H]2C(N)=O)sc1-c1ccnc(C(C)(C)C(F)(F)F)c1 [alpelisib] | 9 | 3 | -1.44 |  |  |  |  |
|  | Cn1cc(-c2cc3c(N4CCN(c5ncc([C@@](C)(N)c6ccc(F)cc6)cn5)CC4)ncnn3c2)cn1 [avapritinib] | 85 | 76 | 6 |  |  |  |  |
| 2 | Cn1cnc2c(F)c(Nc3ccc(Br)cc3F)c(C(=O)NOCCO)cc21 [binimetinib] | -4.32 | 10 | 0.465 |  |  |  |  |
|  | CNC(=O)c1ccc(-c2cnc3ncc(Cc4ccc5ncccc5c4)n3n2)cc1F [capmatinib] |  |  |  | -1.53 | 18 | 5.7 | 3 |
| 69 | COc1cc2ncnc(Nc3ccc(F)c(Cl)c3)c2cc1NC(=O)/C=C/CN1CCCCC1 [dacomitinib] | 11 | 20 | 1 |  |  |  |  |
| 2 | C[C@H](Nc1ncnc2nc[nH]c12)c1cc2cccc(Cl)c2c(=O)n1-c1ccccc1 [duvelisib] | 0.44 | 7.43 | -0.0517 |  |  |  |  |
| 2.45 | O=C(Nc1cnn2ccc(N3CCC[C@@H]3c3cc(F)ccc3F)nc12)N1CC[C@H](O)C1 [larotrectinib] | 13 | -0.638 | 3.76 |  |  |  |  |
| 99 | CO[C@]1(C(=O)N[C@@H](C)c2ccc(-n3cc(F)cn3)nc2)CC[C@H](c2nc(C)cc(Nc3cc(C)[nH]n3)n2)CC1 [pralsetinib] | 91 | 96 | 14 |  |  |  |  |
|  | CCn1c(=O)c(-c2cc(NC(=O)Nc3ccccc3)c(F)cc2Br)cc2cnc(NC)cc21 [ripretinib] | 4.32 | 91 | 89 |  |  |  |  |
| 96 | COc1ccc(CN2C3CC2CN(c2ccc(-c4cc(OCC(C)(C)O)cn5ncc(C#N)c45)cn2)C3)cn1 [selpercatinib] | 10 | 98 | 5.33 |  |  |  |  |
| 25 | Cn1cnc2c(F)c(Nc3ccc(Br)cc3Cl)c(C(=O)NOCCO)cc21 [selumetinib] | 6 | 4.22 | 3.77 |  |  |  |  |
| 30 | Cc1cc(Nc2ncnc3ccc(NC4=NC(C)(C)CO4)cc23)ccc1Oc1ccn2ncnc2c1 [tucatinib] | 9 | 3.22 | 5 |  |  |  |  |

| SMILES | inhibition at 1 µM [2, 6] [%] | inhibition at 1 µM [1, 5] [%] | inhibition at 1 µM [3, 7] [%] | inhibition at 1 µM [4, 8] [%] | inhibition at 1 µM [1] [%] | inhibition at 1 µM [2] [%] | inhibition at 1 µM [3] [%] | inhibition at 1 µM [4] [%] |
| --- | --- | --- | --- | --- | --- | --- | --- | --- |
| COC(=O)N[C@@H](C)CNc1nccc(-c2cn(C(C)C)nc2-c2cc(Cl)cc(NS(C)(=O)=O)c2F)n1 [encorafenib] | 4 | -0.237 | 17 | -0.719 |  |  |  |  |
| CN1CCN(c2ccc(C(=O)Nc3n[nH]c4ccc(Cc5cc(F)cc(F)c5)cc34)c(NC3CCOCC3)c2)CC1 [entrectinib] | 29 | 102 | 76 | 3 |  |  |  |  |
| CCc1nc(C(N)=O)c(Nc2ccc(N3CCC(N4CCN(C)CC4)CC3)c(OC)c2)nc1NC1CCOCC1 [gilteritinib] | 95 | 98 | 95 | 9 |  |  |  |  |
| CCN1CCN(c2ccc(Nc3cc(N(C)C(=O)Nc4c(Cl)c(OC)cc(OC)c4Cl)ncn3)cc2)CC1 [infigratinib] | 59 | 8 | 91 | 91 |  |  |  |  |
| C[C@H]1Oc2cc(cnc2N)-c2c(nn(C)c2C#N)CN(C)C(=O)c2ccc(F)cc21 [lorlatinib] | 1.74 | 26 | 3.17 | -1.11 |  |  |  |  |
| CCN1C(=O)N(c2c(F)c(OC)cc(OC)c2F)Cc2cnc3[nH]c(CN4CCOCC4)cc3c21 [pemigatinib] | 69 | -2.15 | 95 | 48 |  |  |  |  |
| FC(F)(F)c1ccc(CNc2ccc(Cc3c[nH]c4ncc(Cl)cc34)cn2)cn1 [pexidartinib] | 83 | 8 | 82 | 4 |  |  |  |  |
| C=CC(=O)N1CCC([C@@H]2CCNc3c(C(N)=O)c(-c4ccc(Oc5ccccc5)cc4)nn32)CC1 [zanubrutinib] | 11 | -7 | 2.22 | 4 |  |  |  |  |
